Where “and” joins values, the source holds several entries; their conditions need not be identical. Equal values may be shown once. Read-outs that look alike come from different tables or passages of the source.

The conditions of data set [1]: rat, cited from earlier work.
For data set [2] the following is noted: cited from earlier work.
The conditions of data set [3]: rodent and comment not printed ref Fernstermacher 1989; cited from earlier work.
For data set [4] the following is noted: cited from earlier work. The source holds these as a separate data set.

As to `Cc1cn([C@H]2C[C@H](N=[N+]=[N-])[C@@H](CO)O2)c(=O)[nH]c1=O` [zidovudine], the “logPo^PAMPA” value was −5.79. The “logPS(obs)” value in data set [1] (i.v. ref Wu et al. 1998) is recorded as −3.99 mL/g/s.

`CC[C@]1(O)C[C@H]2CN(CCc3c([nH]c4ccccc34)[C@@](C(=O)OC)(c3cc4c(cc3OC)N(C=O)[C@H]3[C@@](O)(C(=O)OC)[C@H](OC(C)=O)[C@]5(CC)C=CCN6CC[C@]43[C@@H]65)C2)C1` [vincristine]: the “logPo^PAMPA” value is given as −2.72. Moreover, the “logPS(obs)” value in data set [2] (mouse ref Murakami et al. 2000) was −4.12 mL/g/s. For the same compound, in data set [2] (mouse, mdr1a(−/−) ref Cisternino et al. 2001), the “logPS(obs)” value is listed as −3.82 mL/g/s. The “logPS(obs)” value in data set [2] (mouse, mrp1(−/−), footnote x ref Cisternino et al. 2003) was −4.25 mL/g/s. Besides, the “logPS(obs)” value in data set [3] is recorded as −4.00 mL/g/s. Further, the “logPS(obs)” value in data set [4] (rat ref Greig et al. 1990) was −3.91 mL/g/s. Besides, the “logPS(obs)” value in data set [4] (rat ref Murakami et al. 2000) is reported as −4.10 mL/g/s.

For the compound `CN1CC(=O)NC1=N` [creatinine], the “logPo^PAMPA” value is reported as −7.52. In addition, the “logPS(obs)” value in data set [1] (i.v. ref Levin 1980) was −4.55 mL/g/s and −4.70 mL/g/s.
